Results: patent publication US9200046B2, “Reporter system for high throughput screening of compounds and uses thereof” (priority 2011, dated 2015)
“And” between values parts separate entries of the source, which are not always exact repeats. Equal entries are not always repeated. Structures can show the parent of a compound that is named as a salt. Where two headings read alike, the source gives them in different places.

Biological target: Nrf2-Keap1 complex (Homo sapiens, UniProt Q14145)
Assay: cell-based
Assay type: cell-based
Conditions: for activation at 16 µM / activation at 32 µM: 3 h; for activation at 16 µM: read-out: Activation 100 nL; for activation at 32 µM: read-out: Activation 200 nL
[1] = Table 2, 100 nL compound, screen run at 16 and 32 μM, 3 hr
[2] = Table 2, 200 nL compound, screen run at 16 and 32 μM, 3 hr
[3] = Table 1A, 100 nL compound, screen run at 16 and 32 μM, 3 hr
[4] = Table 1A, 200 nL compound, screen run at 16 and 32 μM, 3 hr

Chain of Nrf2-Keap1 complex (Q14145 whole entry, one chain of several): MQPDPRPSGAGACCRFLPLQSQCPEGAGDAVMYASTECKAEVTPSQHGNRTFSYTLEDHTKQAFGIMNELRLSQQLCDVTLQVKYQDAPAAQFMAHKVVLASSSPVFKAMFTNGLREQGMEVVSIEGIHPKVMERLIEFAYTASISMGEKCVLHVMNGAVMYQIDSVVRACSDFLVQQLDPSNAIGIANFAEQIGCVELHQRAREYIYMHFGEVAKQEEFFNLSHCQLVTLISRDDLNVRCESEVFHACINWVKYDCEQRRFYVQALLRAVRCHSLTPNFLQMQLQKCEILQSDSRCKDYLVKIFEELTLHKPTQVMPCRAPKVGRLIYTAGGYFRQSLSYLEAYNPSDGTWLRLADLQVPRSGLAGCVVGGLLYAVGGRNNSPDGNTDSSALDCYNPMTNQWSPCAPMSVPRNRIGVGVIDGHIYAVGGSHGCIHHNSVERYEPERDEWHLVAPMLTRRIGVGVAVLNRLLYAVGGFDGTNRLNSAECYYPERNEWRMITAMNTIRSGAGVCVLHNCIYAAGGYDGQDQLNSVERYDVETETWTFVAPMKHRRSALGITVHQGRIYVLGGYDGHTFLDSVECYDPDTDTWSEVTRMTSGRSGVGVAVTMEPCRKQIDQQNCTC

| SMILES | activation at 16 µM | activation at 32 µM | 100 nL (luminescence) [1] | 200 nL (luminescence) [2] | Activation 100 nL | Activation 200 nL | other results |
| --- | --- | --- | --- | --- | --- | --- | --- |
| CC1CCC(NC(=O)N(CCCl)N=O)CC1 (stereo not drawn) [SEMUSTINE, reference compound] | 39% | 144% | – | – | – | – | 100 nL (luminescence): 1172; 200 nL (luminescence): 3000 |
| COC(=O)[C@H]1[C@H]2C[C@@H]3c4[nH]c5cc(OC)ccc5c4CCN3C[C@H]2C[C@@H](OC(=O)c2cc(OC)c(OC)c(OC)c2)[C@@H]1OC [RESERPINE, reference compound] | 36% | 8% | 1120 | 572 | – | – | – |
| COc1cc(/C=C/CO)ccc1O [CONIFERYLALCOHOL] | 125% | 79% | 2032 | 2264 | – | – | – |
| C[C@]12C=CC(=O)C=C1CC[C@@H]1[C@@H]2CC[C@]2(C)C(=O)CC[C@@H]12 [ANDROSTA-1,4-DIEN-3,17-DIONE] | 81% | 70% | 1444 | 2048 | – | – | – |
| O=[N+]([O-])c1cccc2c(Br)n[nH]c12 [3-BROMO-7-NITROINDAZOLE] | 30% | 8% | – | – | – | – | hit strength in the screen (words): modest hits; 100 nL (luminescence) [3]: 632; 200 nL (luminescence) [4]: 512 |
| C[C@]12CCC(=O)C=C1CCc1ccc(O)cc12 [12-HYDROXY-4,4-BISNOR-4,8,11,13-PODOCARPATETRAEN-3-ONE] | – | – | 592 | 768 | 26% | 18% | – |
| C=C(CC)C(=O)c1ccc(OCC(=O)O)c(Cl)c1Cl [reference compound] | 139% | 156% | 2088 | 3604 | – | – | – |
| COc1ccc2c(c1)OCC(Cc1ccc(O)c(OC)c1)C2=O (stereo not drawn) | – | – | – | – | – | – | 100 nL (luminescence): 1416 and 900 |
| COc1cc([C@@H]2c3cc4c(cc3[C@@H](O[C@@H]3O[C@@H]5CO[C@@H](c6cccs6)O[C@H]5[C@H](O)[C@H]3O)[C@H]3COC(=O)[C@H]23)OCO4)cc(OC)c1O [TENIPOSIDE, reference compound] | 159% | 61% | 3572 | 1520 | – | – | Neh2-luc reporter activation: 200% |
| CC1(C)C(=O)CC[C@]2(C)[C@H]3CC[C@]4(C)C(=CC(=O)O[C@H]4c4ccoc4)[C@]3(C)[C@H](O)C[C@@H]12 [DIHYDRO-7-DESACETYLDEOXYGEDUNIN] | – | – | 1852 | 1796 | 98% | 96% | – |
| COc1cc(O)c(C(=O)/C=C/c2ccccc2)c(OC)c1 [FLAVOKAWAINB] | 144% | -21% | 2564 | 8 | – | – | – |
| NCCc1ccc(O)c(O)c1 [3-HYDROXYTYRAMINE] | 37% | 69% | – | – | – | – | 100 nL (luminescence): 990; 200 nL (luminescence): 1704 |
| COc1ccc2c(c1)[C@@]1(C)CCC(=O)C[C@H]1CC2 [5beta-12-METHOXY-4,4-BISNOR-8,11,13-PODOCARPATRIEN-3-ONE] | 46% | 13% | – | – | – | – | 100 nL (luminescence) [3]: 768; 200 nL (luminescence) [4]: 636 |
| COC1=CC(=O)C(C(=O)c2ccccc2)=CC1=O [2-BENZOYL-5-METHOXYBENZOQUINONE] | 72% | 83% | 994 | 2280 | – | – | – |
| C=C[C@@]1(C)CC(=O)[C@]2(O)[C@@]3(C)[C@@H](O)CCC(C)(C)[C@@H]3[C@H](O)[C@H](OC(C)=O)[C@@]2(C)O1 [COLFORSIN, reference compound] | 91% | 120% | 2208 | 2568 | – | – | – |
| COc1c(O)cc2oc3cc(O)c(CC=C(C)C)c(O)c3c(=O)c2c1CC=C(C)C [alpha-MANGOSTIN] | – | – | – | – | 28% | −19% | 100 nL (luminescence): 736; 200 nL (luminescence): 16 |
| O=c1c(O)c(-c2ccccc2)oc2cccc(O)c12 [3,5-DIHYDROXYFLAVONE] | 66% | -17% | 1484 | 24 | – | – | – |
| CC(=O)O[C@H]1CCC2(C)C3=C(CCC2C1(C)C)[C@@]1(C)CC[C@@H](C(C)CCC=C(C)C)[C@]1(C)CC3 (stereo partly drawn) [EUPHOLACETATE] | – | – | 1710 | 2020 | 89% | 111% | – |
| CNC(=O)Oc1cccc2c1OC(C)(C)O2 [BENDIOCARB] | 87% | 101% | – | – | – | – | 100 nL (luminescence): 1532; 200 nL (luminescence): 2760 |
| O=C1CC(c2ccc(O)cc2)Oc2ccccc21 (stereo not drawn) [4′-HYDROXYFLAVANONE] | 158% | 75% | 1752 | 2088 | – | – | – |

| SMILES | activation at 16 µM | activation at 32 µM | 100 nL (luminescence) [1] | 200 nL (luminescence) [2] | Activation 100 nL | Activation 200 nL | other results |
| --- | --- | --- | --- | --- | --- | --- | --- |
| CCCCC1C(=O)N(c2ccccc2)N(c2ccc(O)cc2)C1=O (stereo not drawn) [OXYPHENBUTAZONE, reference compound] | – | – | 1760 | 3084 | 113% | 131% | – |
| CCOCN(C(=O)CCl)c1c(C)cccc1CC [ACETOCHLOR] | 71% | 112% | 1320 | 3024 | – | – | – |
| CC(C)c1cccc(=O)c(O)c1 [HINOKITIOL] | 29% | 1% | 860 | 372 | – | – | – |
| O=c1ccn([C@@H]2O[C@H](COP(=O)([O-])OP(=O)([O-])OP(=O)([O-])O)[C@@H](O)[C@H]2O)c(=O)[nH]1.[Na+].[Na+].[Na+] [URIDINETRIPHOSPHATETRISODIUM] | – | – | 612 | 708 | 28% | 16% | – |
| O=C1OC(=O)[C@H]2[C@@H]1[C@@H]1CC[C@H]2O1 [NORCANTHARIDIN] | – | – | 756 | 572 | 45% | 10% | – |
| NCCc1cc(O)c(O)cc1O [OXIDOPAMINEHYDROCHLORIDE] | 107% | 124% | 1676 | 2936 | – | – | – |
| O=C(/C=C/c1ccc(O)cc1)c1ccccc1O [2′,4-DIHYDROXYCHALCONE] | 390% | -9% | 3784 | 120 | – | – | – |
| O=C(CC[N+](=O)[O-])OC[C@H]1O[C@@H](O)[C@H](OC(=O)CC[N+](=O)[O-])[C@@H](OC(=O)CC[N+](=O)[O-])[C@@H]1OC(=O)CC[N+](=O)[O-] [[…]] | – | – | 1020 | 1268 | 75% | 40% | – |
| COc1ccc(C(=O)c2ccccc2)c(O)c1O | – | – | 780 | 1212 | 47% | 37% | – |
| COc1ccc2cc1Oc1ccc(cc1)C[C@H]1c3cc(c(OC)cc3CCN1C)Oc1c(OC)c(OC)cc3c1[C@H](C2)N(C)CC3 [TETRANDRINE] | 85% | 18% | – | – | – | – | 100 nL (luminescence) [3]: 1660; 200 nL (luminescence) [4]: 596 |
| O=c1c(O)c(-c2ccc(O)cc2)oc2cc(O)cc(O)c12 [kaempferol, 3,5,7,4′-tetrahydroxyflavone] | – | – | – | – | – | – | fold less effective than quercetin and fisetin (flavone SAR): 2.5 fold |
| C#C[C@]1(O)CC[C@H]2[C@@H]3CCC4=C(CCC(=O)C4)[C@H]3CC[C@@]21C [NORETHYNODREL, reference compound] | 128% | 171% | – | – | – | – | 100 nL (luminescence): 1948; 200 nL (luminescence): 3920 |
| CC1(C)C2CC(=O)O[C@@]3(C)C4=CC(=O)O[C@@H](c5ccoc5)[C@]4(C)CCC3[C@@]2(C)C=C[C@H]1O (stereo partly drawn) [DEOXYANDIROBINLACTONE] | 40% | 52% | 964 | 1124 | – | – | – |
| COc1cc2c(c(OC)c1OC)-c1ccc(OC)c(=O)cc1[C@@H](NC(C)=O)CC2 [COLCHICINE, reference compound] | 49% | 24% | – | – | – | – | 100 nL (luminescence): 944; 200 nL (luminescence): 840 |
| CC(=O)O[C@H]1C[C@@H](OC(C)=O)C(C)(C)[C@@H]2CC(=O)[C@]3(C)[C@H](CC[C@@]4(C)[C@H](c5ccoc5)OC(=O)[C@H]5O[C@]543)[C@@]12C [7-DEACETOXY-7-OXOKHIVORIN] | – | – | 2924 | 2284 | 168% | 128% | – |
| CC(=O)OC[C@@]1(O)C[C@@]23CC[C@@H]4c5ccoc5CC[C@@]4(C)[C@@H]2CC[C@@H]1C3 [CAFESTOLACETATE] | 81% | 67% | 1452 | 1976 | – | – | – |
| O=C1C=C2C=C[C@@H]3C[C@@]2(O1)[C@H]1CCCCN31 [SECURININE] | 84% | -14% | 2068 | 176 | – | – | – |
| C=C[C@@](C)(O)CCC1C(=C)CCC2[C@@](C)(CO)CCC[C@]12C (stereo partly drawn) [EPI(13)TORULOSOL] | – | – | 724 | 448 | 27% | 0% | – |
| COc1cc(O)c(C(=O)/C=C/c2ccc(OC)c(O)c2)c(OC)c1 [2′,3-DIHYDROXY-4,4′,6′-TRIMETHOXYCHALCONE] | 296% | 10% | 5436 | 544 | – | – | – |
| COC(=O)CC[C@@H](C)[C@H]1CC[C@H]2[C@@H]3[C@H](O)C[C@@H]4C[C@H](O)CC[C@]4(C)[C@H]3C[C@H](O)[C@]12C [CHOLICACID, METHYLESTER] | – | – | 848 | 804 | 36% | 15% | – |
